This note sets out measurements from ChEMBL document CHEMBL3639364, “Preparation method of dihydroindene amide compounds, their pharmaceutical compositions containing compounds thereof and use as protein kinases inhibitor” (2014).

Assay [1] has as its target Mast/stem cell growth factor receptor Kit (Homo sapiens, UniProt P10721). In words: (§1) Kinase buffer: 62.5 mM HEPES, pH 7.5; 0.001875% Brij-35; 12.5 mM MgCl2; 2.5 mM DTT. Stop buffer: 100 mM HEPES, pH 7.5; 0.015% Brij-35; 0.2% coating agent 3; 50 mM EDTA. Preparation of kinase solution: Kinase solution was obtained by dissolving kinases in the kinase buffer mentioned above. With regard to c-Kit kinase, the pre-activation treatments should be carried out as follows. 700 nM c-Kit, 2 mM ATP, 4 mM DTT and 10 mM MgCl2 were dissolved in kinase buffer. After being incubated at 28° C. for 15 minutes, the solution was added to the kinase buffer.

Assay [2] deals with Platelet-derived growth factor receptor beta (Homo sapiens, UniProt P09619). The description is as §1.
Chain of Platelet-derived growth factor receptor beta (P09619 whole entry): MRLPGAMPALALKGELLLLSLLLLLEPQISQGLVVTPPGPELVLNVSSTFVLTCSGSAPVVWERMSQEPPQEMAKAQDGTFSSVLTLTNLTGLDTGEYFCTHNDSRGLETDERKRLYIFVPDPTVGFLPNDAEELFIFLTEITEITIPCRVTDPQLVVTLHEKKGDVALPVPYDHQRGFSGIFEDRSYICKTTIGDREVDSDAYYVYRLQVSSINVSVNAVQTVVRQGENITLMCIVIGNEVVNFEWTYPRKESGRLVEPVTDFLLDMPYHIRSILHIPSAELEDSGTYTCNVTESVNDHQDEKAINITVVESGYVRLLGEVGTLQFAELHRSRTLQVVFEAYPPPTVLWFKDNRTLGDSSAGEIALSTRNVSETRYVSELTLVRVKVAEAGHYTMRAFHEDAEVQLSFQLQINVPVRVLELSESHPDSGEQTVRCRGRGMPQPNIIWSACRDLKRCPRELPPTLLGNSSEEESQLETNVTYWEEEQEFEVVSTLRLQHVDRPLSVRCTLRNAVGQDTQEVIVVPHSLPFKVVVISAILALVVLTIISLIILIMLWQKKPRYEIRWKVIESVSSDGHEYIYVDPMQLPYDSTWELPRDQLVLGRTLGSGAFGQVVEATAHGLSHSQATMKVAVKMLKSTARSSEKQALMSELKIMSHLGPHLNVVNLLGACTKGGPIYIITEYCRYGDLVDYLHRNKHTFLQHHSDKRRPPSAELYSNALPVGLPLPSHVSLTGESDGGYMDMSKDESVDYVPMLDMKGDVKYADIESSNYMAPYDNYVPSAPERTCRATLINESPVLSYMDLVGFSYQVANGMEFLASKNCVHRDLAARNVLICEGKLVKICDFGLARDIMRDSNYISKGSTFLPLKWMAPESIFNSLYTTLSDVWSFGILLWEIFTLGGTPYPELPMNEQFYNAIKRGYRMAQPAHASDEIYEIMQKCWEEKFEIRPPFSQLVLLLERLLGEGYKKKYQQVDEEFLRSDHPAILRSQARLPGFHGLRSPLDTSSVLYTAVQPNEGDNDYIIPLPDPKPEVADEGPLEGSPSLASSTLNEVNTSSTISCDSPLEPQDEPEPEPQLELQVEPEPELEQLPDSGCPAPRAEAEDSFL

Chain of Mast/stem cell growth factor receptor Kit (P10721 whole entry): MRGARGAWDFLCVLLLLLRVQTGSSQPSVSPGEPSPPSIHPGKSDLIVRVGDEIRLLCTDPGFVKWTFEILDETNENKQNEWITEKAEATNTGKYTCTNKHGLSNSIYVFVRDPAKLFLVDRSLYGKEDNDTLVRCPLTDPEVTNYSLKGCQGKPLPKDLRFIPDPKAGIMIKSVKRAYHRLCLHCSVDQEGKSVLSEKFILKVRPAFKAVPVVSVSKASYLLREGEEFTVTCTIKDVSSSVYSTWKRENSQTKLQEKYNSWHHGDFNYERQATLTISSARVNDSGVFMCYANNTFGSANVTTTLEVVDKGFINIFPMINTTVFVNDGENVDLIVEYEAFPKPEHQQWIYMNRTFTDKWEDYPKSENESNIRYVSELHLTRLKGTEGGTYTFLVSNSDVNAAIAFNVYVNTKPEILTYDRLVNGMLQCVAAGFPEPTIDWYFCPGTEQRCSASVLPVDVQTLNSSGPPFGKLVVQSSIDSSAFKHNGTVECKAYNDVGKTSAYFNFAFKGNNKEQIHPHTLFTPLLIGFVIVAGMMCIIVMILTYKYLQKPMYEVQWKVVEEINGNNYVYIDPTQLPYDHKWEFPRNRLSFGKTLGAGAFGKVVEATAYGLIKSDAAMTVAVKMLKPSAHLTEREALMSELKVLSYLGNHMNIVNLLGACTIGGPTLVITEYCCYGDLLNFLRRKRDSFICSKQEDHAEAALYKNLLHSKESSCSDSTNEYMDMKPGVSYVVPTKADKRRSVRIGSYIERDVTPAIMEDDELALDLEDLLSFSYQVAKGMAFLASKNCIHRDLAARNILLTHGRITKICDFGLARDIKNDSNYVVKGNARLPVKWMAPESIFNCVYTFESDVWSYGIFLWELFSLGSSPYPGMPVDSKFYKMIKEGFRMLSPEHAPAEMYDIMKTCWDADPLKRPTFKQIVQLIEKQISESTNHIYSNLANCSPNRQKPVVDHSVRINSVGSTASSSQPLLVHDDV

Regarding `CCN1CCN(C2CCc3cc(C(=O)Nc4ccc(C)c(Nc5nccc(-c6cccnc6)n5)c4)ccc32)CC1` (centres undefined), the IC50 – broadly, the point on the concentration scale where inhibition reaches its midpoint – in assay [1] stood at 26 nM; in assay [2], 15 nM.

For `Cc1ccc(NC(=O)c2ccc3c(c2)CCC3N2CC[C@@H](N(C)C)C2)cc1Nc1nccc(-c2cccnc2)n1` (some centres undefined), the IC50 in assay [1] worked out at 32 nM; in assay [2], 21 nM.
